This note sets out measurements from US6147076A, “Analogues of N-acetylardeemin, method of preparation and uses thereof” (priority 1996, dated 2000).

The test system of data set [1] is CCRF-CEM cells. Briefly: Cytotoxicity / growth inhibition of CCRF-CEM leukemic cells.
In data set [2] the test system is CCRF-CEM cells. The experiment in a line: Intracellular accumulation of [3H]vinblastine in CCRF-CEM cells. As to conditions: 30 μM. The format is cell-based, human. The method, then:
(§1) *Cells were preloaded with [^3 H]
(§2) times (or without wash) with 100 ml cold medium to remove extracellular
(§3) with or without a reverse prenyl compound or an MDRreversing agent. Cells
(§4) were then separated from radioactive medium by microfuge oillayer method.
(§5) Extracellular space counts carried down # by cells (^3 HInulin space
(§6) were subtracted from the total radioactive counts.

The subject of another data set is CCRF-CEM/VLB-100 cells. The experiment in a line: Intracellular accumulation of [3H]vinblastine in CCRF-CEM/VLB-100 cells. Type of data set: cell-based, human. The note with it: 30 μM. The method, then: as §1, §2, §3, §4, §5, §6
A further data set concerns CCRF-CEM/VM-1 cells. The experiment in a line: Cytotoxicity toward VM-26-resistant CCRF-CEM/VM-1 cells (mutated Topo II gene). Type of data set: cell-based, human.
Data set [3] has as its system CCRF-CEM/VBL100 cells. The experiment in a line: cells. The note with it: Homo sapiens.
For the next data set, the system named is DC-3F/ADX cells. The experiment in a line: Cytotoxicity toward DC-3F/ADX cells. The note with it: for IC50: DC3F/ADX, DC-3F/ADX; for (C)/(A): IC50 ratio DC-3F/ADX to DC-3F, * collaterally sensitive. The format is cell-based, hamster.
In data set [4] the test system is DC-3F/ADII cells.
In the next data set the test system is DC-3F hamster lung cells. The experiment in a line: Cytotoxicity toward DC-3F hamster lung cells.
Data set [5] has as its system DC-3F/ADII cells. The experiment in a line: cells. The note with it: Mesocricetus auratus, DC3F.
Data set [6] has as its system CCRF-CEM/VBL100 cells.
For data set [7], the system named is CCRF-CEM cells.
[8] abbreviates: Homo sapiens, Table 5A, single determinations.
Setting [9] is: Homo sapiens, CCRF-CEM, Table 5A, CCRF-CEM/VM-1, read-out: IC50.
Where [10] appears, read: Table 5A, CCRF-CEM/VLB, * collaterally sensitive vs parent.
Where [11] appears, read: Mesocricetus auratus, DC3F, read-out: IC50 (A), mean ± spread, mean of the determinations.
Setting [12] is: Mesocricetus auratus, DC3F, read-out: IC50 (A), single determinations.
Setting [13] is: read-out: IC50 (A), single determinations.
Setting [14] is: Homo sapiens, read-out: IC50, mean ± spread, Table 5A, CCRF-CEM, mean.
Where [15] appears, read: Table 5A, single determinations.
The mark [16] stands for this setting: read-out: IC50, mean ± spread, Table 5A, CCRF-CEM/VLB, mean.

Several values for one entry are separate records, joined by “and”; a condition that tells them apart may be missing. Equal values may be shown once. Read-outs that look alike come from different tables or passages of the source. Numbered stars: 1 amine (or outer) side, 2 acyl side, 3 side chain; on linkers, the order of the positions; unused ones are H or OH. Bridge positions count the residues as written; N and C are the ends. Square brackets hold non-standard residues; d marks the D form. Peptide text beside a SMILES is read from it. I, II: the chains in the order shown. Actinocin(9to1) = Cc1c2oc3c(C)ccc(C(=O)[*:1])c3nc-2c(C(=O)[*:2])c(N)c1=O; NMeV = CN[C@H](C(=O)O)C(C)C; Sar = CNCC(=O)O

Regarding `C=CC(C)(C)C12CC3c4nc5ccccc5c(=O)n4C(C)C(=O)N3C1N(C(=O)C(F)(F)F)c1ccccc12` (centres unmarked) [5N F3 -Ac-Ard 3F, 5N-Tri-F Acetyl Ardeemin], the IC50 with CCRF-CEM cells [1] (setting [8]) came out at 37.5 µM; with CCRF-CEM cells [1] (Homo sapiens, read-out: IC50 of reversing agent, Table 6B, CCRF-CEM) it was 37.6 µM; with CCRF-CEM/VM-1 cells (setting [9]) it was 52.6 µM; in the data set with CCRF-CEM/VBL100 cells [3] (setting [10]), 17.2 µM; in the data set on CCRF-CEM/VBL100 cells [3] (read-out: IC50 of reversing agent, Table 6B, CCRF-CEM/VBL) it was 17.2 µM. Further, the “[3H]vinblastine accumulation” value with CCRF-CEM cells [2] (washed) was found to be 28.44 fmole/10^3 cells; in the data set with CCRF-CEM cells [2] (without wash), 34.01 fmole/10^3 cells; in the data set on CCRF-CEM/VLB-100 cells (washed) it was 7.28 fmole/10^3 cells; with CCRF-CEM/VLB-100 cells (without wash), 32.68 fmole/10^3 cells.
`C=CC(C)(C)C12CC3C(=O)NCC(=O)N3C1Nc1ccccc12` (centres unmarked) [Desmethyl-DKP]: the IC50 with DC-3F/ADX cells turned out to be 199 µM; in the data set with DC-3F hamster lung cells (setting [11]), 131 ± 14.7 µM; in the data set on DC-3F hamster lung cells (setting [12]), 116 µM; in the data set on DC-3F hamster lung cells (setting [13]) it was 145 µM; with DC-3F/ADII cells [5] (read-out: IC50 (B)), 103 µM. The “(C)/(A)” value with DC-3F/ADX cells is recorded as 1.5 X. The “(B)/(A)” value in the data set on DC-3F/ADII cells [4] stood at 1.3 X.
For the molecule `C=CC(C)(C)C12CC3C(=O)N(C(C)=O)C(C)C(=O)N3C1Nc1ccccc12` (centres unmarked) [Imide-Ac-DKP 14(A), imide acetate diketopiperazine], the IC50 in the data set on CCRF-CEM/VBL100 cells [6] (setting [10]) is 36.2 µM; in the data set on CCRF-CEM cells [1] (setting [8]), 48.1 µM; with CCRF-CEM cells [1] (Homo sapiens, Table 6, CCRF-CEM), 48.1 µM; with CCRF-CEM cells [1] (setting [14]) it was 61 ± 13.1 µM; in the data set on CCRF-CEM cells [1] (setting [15]), 47.9 µM and 87 µM; in the data set with CCRF-CEM/VM-1 cells (setting [9]), 50 µM. For the same molecule, the IC50 in the data set on CCRF-CEM/VBL100 cells [3] (setting [10]) was determined as 39.7 µM; in the data set with CCRF-CEM/VBL100 cells [3] (Table 6, CCRF-CEM/VBL), 39.7 µM; in the data set on CCRF-CEM/VBL100 cells [3] (setting [16]), 38 ± 1.8 µM. Also, the “[3H]vinblastine accumulation” value in the data set on CCRF-CEM cells [2] (washed) came to 30.18 fmole/10^3 cells; in the data set on CCRF-CEM cells [2] (without wash), 34.87 fmole/10^3 cells; in the data set with CCRF-CEM/VLB-100 cells (washed), 4.52 fmole/10^3 cells; in the data set with CCRF-CEM/VLB-100 cells (without wash), 18.93 fmole/10^3 cells.
Take `C=CC(C)(C)C12CC3C(=O)NCC(=O)N3C1N(C(C)=O)c1ccccc12` (centres unmarked) [5N-Ac-8-desMe-DKP, 5N-acetyl diketopiperazine]: the IC50 is 21.4 µM with CCRF-CEM cells [1] (setting [8]); 22.1 ± 0.7 µM in the data set on CCRF-CEM cells [1] (setting [14]); 22.7 µM in the data set on CCRF-CEM cells [1] (setting [15]); 35.8 µM in the data set with CCRF-CEM/VM-1 cells (Homo sapiens, CCRF-CEM); 19.9 ± 13 µM with CCRF-CEM/VBL100 cells [3] (setting [16]).
On to `Cc1c2oc3c(C)ccc(C(=O)N[C@@H]4C(=O)N[C@H](C(C)C)C(=O)N5CCC[C@H]5C(=O)N(C)CC(=O)N(C)[C@@H](C(C)C)C(=O)O[C@@H]4C)c3nc-2c(C(=O)N[C@@H]2C(=O)N[C@H](C(C)C)C(=O)N3CCC[C@H]3C(=O)N(C)CC(=O)N(C)[C@@H](C(C)C)C(=O)O[C@@H]2C)c(N)c1=O` [Actinomycin D, reference compound] (I: T[dV]P[Sar][NMeV] / II: T[dV]P[Sar][NMeV]; ester I:1-I:C, II:1-II:C; linker I:N-II:N via Actinocin(9to1)), for which, in the data set with DC-3F/ADX cells, the “(C)/(A), resistance in words” value is given as “Very Resistant”. Further, the IC50 came out at 1.23 µM with DC-3F/ADX cells; 0.00026 ± 5e-05 µM with DC-3F hamster lung cells (setting [11]); 0.00021 µM with DC-3F hamster lung cells (setting [12]); 0.00031 µM in the data set with DC-3F hamster lung cells (setting [13]); 0.0909 µM with DC-3F/ADII cells [5] (read-out: IC50 (B), DC-3F/ADII). The “(C)/(A)” value in the data set with DC-3F/ADX cells is 4738.5 X. Besides, the “(B)/(A), resistance in words” value with DC-3F/ADII cells [4] is “Resistant”. Moreover, the “(B)/(A)” value with DC-3F/ADII cells [4] (IC50 ratio DC-3F/ADII to DC-3F, * collaterally sensitive) came to 349.6 X.
Turning to `COc1cc(NS(C)(=O)=O)ccc1Nc1c2ccccc2nc2ccccc12` [M-AMSA, reference compound], the IC50 stood at 0.656 µM in the data set with CCRF-CEM/VBL100 cells [6] (ccrf-cem/vbl100 cells), 0.032 µM in the data set on DC-3F/ADII cells [4] (dc-3f/adii cells), 0.184 µM in the data set on CCRF-CEM cells [7] and 2.55 µM in the data set with CCRF-CEM/VM-1 cells (ccrf-cem/vm-1 cells).
